Reference: BigSolDB 2.1

With Oc1ccc(C2(c3ccc(O)cc3)CCCCC2)cc1 the solubility (mole fraction) (in 1,4-dioxane, 288.15 K) was 0.0609, the solubility (mole fraction) (in 1,4-dioxane, 293.15 K) was 0.0621 and the solubility (mole fraction) (in 1,4-dioxane, 298.15 K) was 0.0676. The solubility (mole fraction) (in 1,4-dioxane, 303.15 K) was 0.0731, the solubility (mole fraction) (in 1,4-dioxane, 308.15 K) was 0.0866 and the solubility (mole fraction) (in 1,4-dioxane, 313.15 K) was 0.103. The solubility (mole fraction) (in 1,4-dioxane, 318.15 K) was 0.116, the solubility (mole fraction) (in 1,4-dioxane, 323.15 K) was 0.127 and the solubility (mole fraction) (in 1,4-dioxane, 328.15 K) was 0.144. The solubility (mole fraction) (in THF, 288.15 K) was 0.182, the solubility (mole fraction) (in THF, 293.15 K) was 0.192 and the solubility (mole fraction) (in THF, 298.15 K) was 0.206. It also gave a solubility (mole fraction) (in THF, 303.15 K) of 0.221, a solubility (mole fraction) (in THF, 308.15 K) of 0.236 and a solubility (mole fraction) (in THF, 313.15 K) of 0.251. It also gave a solubility (mole fraction) (in THF, 318.15 K) of 0.268, a solubility (mole fraction) (in THF, 323.15 K) of 0.283 and a solubility (mole fraction) (in THF, 328.15 K) of 0.308. The solubility (mole fraction) (in acetone, 288.15 K) was 0.0602, the solubility (mole fraction) (in acetone, 293.15 K) was 0.0652 and the solubility (mole fraction) (in acetone, 298.15 K) was 0.0756. For the same molecule, the solubility (mole fraction) (in acetone, 303.15 K) was 0.0931, the solubility (mole fraction) (in acetone, 308.15 K) was 0.109 and the solubility (mole fraction) (in acetone, 313.15 K) was 0.127. It also gave a solubility (mole fraction) (in acetone, 318.15 K) of 0.152, a solubility (mole fraction) (in acetone, 323.15 K) of 0.182 and a solubility (mole fraction) (in acetone, 328.15 K) of 0.219. For the same molecule, the solubility (mole fraction) (in ethanol, 288.15 K) was 0.0073, the solubility (mole fraction) (in ethanol, 293.15 K) was 0.0084 and the solubility (mole fraction) (in ethanol, 298.15 K) was 0.0096. For the same molecule, the solubility (mole fraction) (in ethanol, 303.15 K) was 0.0117, the solubility (mole fraction) (in ethanol, 308.15 K) was 0.013 and the solubility (mole fraction) (in ethanol, 313.15 K) was 0.0152. It also gave a solubility (mole fraction) (in ethanol, 318.15 K) of 0.017, a solubility (mole fraction) (in ethanol, 323.15 K) of 0.0186 and a solubility (mole fraction) (in ethanol, 328.15 K) of 0.0202. For the same molecule, the solubility (mole fraction) (in ethyl acetate, 288.15 K) was 0.0571, the solubility (mole fraction) (in ethyl acetate, 293.15 K) was 0.0681 and the solubility (mole fraction) (in ethyl acetate, 298.15 K) was 0.0769. For the same molecule, the solubility (mole fraction) (in ethyl acetate, 303.15 K) was 0.0951, the solubility (mole fraction) (in ethyl acetate, 308.15 K) was 0.113 and the solubility (mole fraction) (in ethyl acetate, 313.15 K) was 0.136. The solubility (mole fraction) (in ethyl acetate, 318.15 K) was 0.15, the solubility (mole fraction) (in ethyl acetate, 323.15 K) was 0.176 and the solubility (mole fraction) (in ethyl acetate, 328.15 K) was 0.199. For the same molecule, the solubility (mole fraction) (in isopropanol, 288.15 K) was 0.0053, the solubility (mole fraction) (in isopropanol, 293.15 K) was 0.0061 and the solubility (mole fraction) (in isopropanol, 298.15 K) was 0.0066. For the same molecule, the solubility (mole fraction) (in isopropanol, 303.15 K) was 0.0076, the solubility (mole fraction) (in isopropanol, 308.15 K) was 0.0089 and the solubility (mole fraction) (in isopropanol, 313.15 K) was 0.0134. It also gave a solubility (mole fraction) (in isopropanol, 318.15 K) of 0.0192, a solubility (mole fraction) (in isopropanol, 323.15 K) of 0.0243 and a solubility (mole fraction) (in isopropanol, 328.15 K) of 0.0294. It also gave a solubility (mole fraction) (in methanol, 288.15 K) of 0.012, a solubility (mole fraction) (in methanol, 293.15 K) of 0.0129 and a solubility (mole fraction) (in methanol, 298.15 K) of 0.0162. The solubility (mole fraction) (in methanol, 303.15 K) was 0.0208, the solubility (mole fraction) (in methanol, 308.15 K) was 0.0253 and the solubility (mole fraction) (in methanol, 313.15 K) was 0.0342. The solubility (mole fraction) (in methanol, 318.15 K) was 0.0428, the solubility (mole fraction) (in methanol, 323.15 K) was 0.0547 and the solubility (mole fraction) (in methanol, 328.15 K) was 0.0685. The solubility (mole fraction) (in n-butanol, 288.15 K) was 0.012, the solubility (mole fraction) (in n-butanol, 293.15 K) was 0.0127 and the solubility (mole fraction) (in n-butanol, 298.15 K) was 0.0133. It also gave a solubility (mole fraction) (in n-butanol, 303.15 K) of 0.0157, a solubility (mole fraction) (in n-butanol, 308.15 K) of 0.0184 and a solubility (mole fraction) (in n-butanol, 313.15 K) of 0.0236. The solubility (mole fraction) (in n-butanol, 318.15 K) was 0.028, the solubility (mole fraction) (in n-butanol, 323.15 K) was 0.0348 and the solubility (mole fraction) (in n-butanol, 328.15 K) was 0.0431. It also gave a solubility (mole fraction) (in n-propanol, 288.15 K) of 0.032, a solubility (mole fraction) (in n-propanol, 293.15 K) of 0.0355 and a solubility (mole fraction) (in n-propanol, 298.15 K) of 0.0437. The solubility (mole fraction) (in n-propanol, 303.15 K) was 0.0563, the solubility (mole fraction) (in n-propanol, 308.15 K) was 0.0654 and the solubility (mole fraction) (in n-propanol, 313.15 K) was 0.0789. For the same molecule, the solubility (mole fraction) (in n-propanol, 318.15 K) was 0.0896, the solubility (mole fraction) (in n-propanol, 323.15 K) was 0.103 and the solubility (mole fraction) (in n-propanol, 328.15 K) was 0.121.
